Data from patent US11040028B2, “Penicinotam derivative, preparation method and use thereof” (OCEAN UNIVERSITY OF CHINA, priority 2017, dated 2021).

Assays:
Assay type in all cases: cell-based
[1] = test system: human hepatic stellate cells LX-2; assay: Anti-fibrosis activity test: inhibition of proliferation of human hepatic stellate cells LX-2 (CCK-8); details: Homo sapiens, 48 h
In short: (§1)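 Cells were seeded at 2×10^4 cells/mL and allowed to adhere for 24 h at 37° C, 5% CO2, then exposed to graded compound concentrations in triplicate for 48 h. CCK-8 was added for 2 h, A450 was read, and IC50 was derived from inhibition rate = (1−Ai/Ao)×100%.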

BHK-21 cells = assay: Anti-fibrosis activity test: inhibition of BHK-21 cell proliferation (CCK-8); details: Mesocricetus auratus, BHK-21, 48 h
In short: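 Proliferation inhibition was read as CCK-8 absorbance at 450 nm (2-hour development) relative to untreated blank, with IC50 fitted from the curve. Before that, adhered cells (2×10^4 cells/mL, 24 hours) had 48 hours' treatment at several concentrations, in triplicate, at 37° C/5% CO2; pirfenidone was the reference.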

[2] = test system: human fibrosarcoma cells HT-1080; assay: Anti-fibrosis activity test: inhibition of proliferation of human fibrosarcoma cells HT-1080 (CCK-8); details: Homo sapiens, HT-1080, 48 h
In short: as §1

[3] = test system: mouse macrophages (RAW264.7); assay: Lipopolysaccharide-induced NO secretion in macrophages (Griess); details: Mus musculus, RAW264.7, 24 h, RAW264.7, LPS 1 μg/ml, a/b isomers given as first/second symbol, read-out: IC50 (μM), inhibition of lipopolysaccharide-induced NO secretion in macrophages
In short: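 RAW264.7 cells in DMEM with 10% FBS were treated with test compounds at several concentrations, then stimulated with LPS (1 μg/ml) for 24 hours. Nitrite in the supernatant was measured by Griess reaction at 548 nm, and percent inhibition was calculated against blank-medium controls.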

[4] = test system: human embryonic lung fibroblast IMR-90; assay: Anti-fibrosis activity test: inhibition of proliferation of human embryonic lung fibroblast IMR-90 (CCK-8)
In short: as §1

[5] = test system: cardiac fibroblast RAT-iCell-C002; assay: Anti-fibrosis activity test: inhibition of proliferation of cardiac fibroblast RAT-iCell-C002 (CCK-8); details: Cardiac fibroblast, 48 h
In short: as §1

[6] = test system: human dermal fibroblasts CCC-ESF-1; assay: Anti-fibrosis activity test: inhibition of proliferation of human dermal fibroblasts CCC-ESF-1 (CCK-8); details: Fibroblast
In short: as §1

[7] = test system: human lung fibroblasts HFL1; assay: Anti-fibrosis activity test: inhibition of proliferation of human lung fibroblasts HFL1 (CCK-8); details: Homo sapiens, HFL1, 48 h
In short: as §1

[8] = Homo sapiens, IMR-90 cells, 48 h, CCK-8
[9] = Homo sapiens, CCC-ESF-1 cells, 48 h, CCK-8
[10] = human hepatic stellate cells LX-2, CCK-8, 48 hours
[11] = CCK-8, 48 hours after administration
[12] = human fibrosarcoma cells HT-1080, CCK-8, 48 hours
[13] = human embryonic lung fibroblast IMR-90, CCK-8, 48 hours
[14] = cardiac fibroblast RAT-iCell-C002, CCK-8, 48 hours
[15] = human dermal fibroblasts CCC-ESF-1, CCK-8, 48 hours
[16] = human lung fibroblasts HFL1, CCK-8, 48 hours

**Q.** How did the IC50 ([1]; LX-2, 48 h, LX-2 cells, CCK-8) turn out when `O=C1c2c(c(=O)c3ccccc3n2CCCCN2CCCCC2)-c2cccn21` [Compound 788a, 6-(4-(Piperidin-1-yl)butyl)-5H-pyrrolizino[2,1-b]quinoline-5,11(6H)-dione] was run?
**A.** 0.05 to 5 mM

**Q.** What about the IC50 (BHK-21 cells; 48 h, CCK-8) of the same compound?
**A.** 0.05 to 5 mM

**Q.** What about the IC50 ([2]; HT-1080 cells, 48 h, CCK-8) of the same compound?
**A.** 0.05 to 5 mM

**Q.** And the IC50 [3]?
**A.** 1 to 10 µM

**Q.** And the IC50 [4, 8]?
**A.** 0.05 to 5 mM

**Q.** And the IC50 ([5]; RAT-iCell-C002 cells, CCK-8)?
**A.** 0.05 to 5 mM

**Q.** And the IC50 [6, 9]?
**A.** 0.05 to 5 mM

**Q.** What about the IC50 ([7]; HFL1 cells, 48 h, CCK-8) of the same compound?
**A.** 0.05 to 5 mM

**Q.** `O=C1c2c([nH]c3ccc(F)cc3c2=O)-c2cccn21` [Compound 156a, 7-Fluoro-9H-pyrrolizino[1,2-b]quinoline-9,10(4H)-dione] was tested. Which IC50 [1, 10] did it give?
**A.** < 0.05 mM

**Q.** And the IC50 (BHK-21 cells; [11])?
**A.** 0.05 to 5 mM

**Q.** And the IC50 [2, 12]?
**A.** 0.05 to 5 mM

**Q.** And the IC50 [3]?
**A.** 1 to 10 µM

**Q.** What about the IC50 [4, 13] of the same compound?
**A.** 0.05 to 5 mM

**Q.** And the IC50 [5, 14]?
**A.** 0.05 to 5 mM

**Q.** What about the IC50 [6, 15] of the same compound?
**A.** 0.05 to 5 mM

**Q.** What about the IC50 [7, 16] of the same compound?
**A.** < 0.05 mM

**Q.** How did the IC50 ([1]; LX-2, 48 h, LX-2 cells, CCK-8) turn out when `O=C1c2c(c(=O)c3ccccc3n2CCCCN2CCNCC2)-c2cccn21` [Compound 794a, 6-(4-(Piperazin-1-yl)butyl)-5H-pyrrolizino[2,1-b]quinoline-5,11(6H)-dione] was run?
**A.** 0.05 to 5 mM

**Q.** And the IC50 (BHK-21 cells; 48 h, CCK-8)?
**A.** 0.05 to 5 mM

**Q.** What about the IC50 ([2]; HT-1080 cells, 48 h, CCK-8) of the same compound?
**A.** 0.05 to 5 mM

**Q.** And the IC50 [3]?
**A.** 1 to 10 µM

**Q.** What about the IC50 [4, 8] of the same compound?
**A.** 0.05 to 5 mM

**Q.** And the IC50 ([5]; RAT-iCell-C002 cells, CCK-8)?
**A.** 0.05 to 5 mM

**Q.** What about the IC50 [6, 9] of the same compound?
**A.** 0.05 to 5 mM

**Q.** What about the IC50 ([7]; HFL1 cells, 48 h, CCK-8) of the same compound?
**A.** 0.05 to 5 mM

**Q.** With `O=C1c2c(n(Cc3ccc(Cl)cc3)c3c(Cl)cccc3c2=O)-c2cccn21` [Compound 451a, 5-Chloro-4-(4-chlorobenzyl)-9H-pyrrolizino[1,2-b]quinoline-9,10(4H)-dione] as the compound, how does the IC50 [1, 10] read?
**A.** 0.05 to 5 mM

**Q.** What about the IC50 (BHK-21 cells; [11]) of the same compound?
**A.** 0.05 to 5 mM

**Q.** And the IC50 [2, 12]?
**A.** 0.05 to 5 mM

**Q.** And the IC50 [3]?
**A.** 1 to 10 µM

**Q.** And the IC50 [4, 13]?
**A.** 0.05 to 5 mM

**Q.** And the IC50 [5, 14]?
**A.** 0.05 to 5 mM

**Q.** What about the IC50 [6, 15] of the same compound?
**A.** 0.05 to 5 mM

**Q.** And the IC50 [7, 16]?
**A.** < 0.05 mM

**Q.** What does the source list for `O=C1c2c(n(Cc3ccc(F)cc3)c3cc(Cl)ccc3c2=O)-c2cccn21` [Compound 502a, 6-Chloro-4-(4-fluorobenzyl)-9H-pyrrolizino[1,2-b]quinoline-9,10(4H)-dione]?
**A.** IC50 [1, 10]: 0.05 to 5 mM; IC50 (BHK-21 cells; [11]): 0.05 to 5 mM; IC50 [2, 12]: 0.05 to 5 mM; IC50 [3]: 1 to 10 µM; IC50 [4, 13]: 0.05 to 5 mM; IC50 [5, 14]: < 0.05 mM; IC50 [6, 15]: 0.05 to 5 mM; IC50 [7, 16]: 0.05 to 5 mM

**Q.** For `O=C1c2c(nc3c(Cl)cccc3c2OCc2cccc(Cl)c2)-c2cccn21` [Compound 459b, 5-chloro-9-((3-chlorobenzyl)oxy)-10H-pyrrolizino[1,2-b]quinolin-10-one], which IC50 [1, 10] is on record?
**A.** 0.05 to 5 mM

**Q.** What about the IC50 (BHK-21 cells; [11]) of the same compound?
**A.** 0.05 to 5 mM

**Q.** And the IC50 [2, 12]?
**A.** 5 to 20 mM

**Q.** And the IC50 [3]?
**A.** 1 to 10 µM

**Q.** And the IC50 [4, 13]?
**A.** 0.05 to 5 mM

**Q.** What about the IC50 [5, 14] of the same compound?
**A.** 0.05 to 5 mM

**Q.** And the IC50 [6, 15]?
**A.** 0.05 to 5 mM

**Q.** And the IC50 [7, 16]?
**A.** 0.05 to 5 mM

**Q.** What does the source list for `O=C1c2c(n(Cc3ccc(F)cc3)c3cccc(Cl)c3c2=O)-c2cccn21` [Compound 474a, 8-Chloro-4-(4-fluorobenzyl)-9H-pyrrolizino[1,2-b]quinoline-9,10(4H)-dione]?
**A.** IC50 [1, 10]: 0.05 to 5 mM; IC50 (BHK-21 cells; [11]): < 0.05 mM; IC50 [2, 12]: 0.05 to 5 mM; IC50 [3]: 1 to 10 µM; IC50 [4, 13]: 0.05 to 5 mM; IC50 [5, 14]: 0.05 to 5 mM; IC50 [6, 15]: 0.05 to 5 mM; IC50 [7, 16]: 0.05 to 5 mM

**Q.** For `N#Cc1ccc2c(c1)c(=O)c1c(n2-c2ccc(F)cc2)-c2cccn2C1=O` [Compound 199a, 4-(4-Fluorophenyl)-9,10-dioxo-4,10-dihydro-9H-pyrrolizino[1,2-b]quinoline-7-carbonitrile], which IC50 [1, 10] is on record?
**A.** 0.05 to 5 mM

**Q.** What about the IC50 (BHK-21 cells; [11]) of the same compound?
**A.** < 0.05 mM

**Q.** And the IC50 [2, 12]?
**A.** 0.05 to 5 mM

**Q.** And the IC50 [3]?
**A.** 1 to 10 µM

**Q.** And the IC50 [4, 13]?
**A.** 0.05 to 5 mM

**Q.** And the IC50 [5, 14]?
**A.** 0.05 to 5 mM

**Q.** What about the IC50 [6, 15] of the same compound?
**A.** 0.05 to 5 mM

**Q.** What about the IC50 [7, 16] of the same compound?
**A.** 0.05 to 5 mM

**Q.** Which IC50 [1, 10] does the source give for `N#Cc1cccc2nc3c(c(OCc4ccccc4F)c12)C(=O)n1cccc1-3` [Compound 469b, 9-((2-fluorobenzyl)oxy)-10-oxo-10H-pyrrolizino[1,2-b]quinoline-8-carbonitrile] here?
**A.** 0.05 to 5 mM

**Q.** What about the IC50 (BHK-21 cells; [11]) of the same compound?
**A.** 0.05 to 5 mM

**Q.** What about the IC50 [2, 12] of the same compound?
**A.** 0.05 to 5 mM

**Q.** And the IC50 [3]?
**A.** 10 to 50 µM

**Q.** What about the IC50 [4, 13] of the same compound?
**A.** 0.05 to 5 mM

**Q.** What about the IC50 [5, 14] of the same compound?
**A.** 0.05 to 5 mM

**Q.** What about the IC50 [6, 15] of the same compound?
**A.** 0.05 to 5 mM

**Q.** And the IC50 [7, 16]?
**A.** 0.05 to 5 mM

**Q.** Which results are given for `N#Cc1c(N2CCNCC2)ccc2c(OCc3ccc(F)cc3)c3c(nc12)-c1cccn1C3=O` [Compound 482b, 9-((4-fluorobenzyl)oxy)-10-oxo-6-(piperazin-1-yl)-10H-pyrrolizino[1,2-b]quinoline-5-carbonitrile]?
**A.** IC50 [1, 10]: 0.05 to 5 mM; IC50 (BHK-21 cells; [11]): 0.05 to 5 mM; IC50 [2, 12]: < 0.05 mM; IC50 [3]: 1 to 10 µM; IC50 [4, 13]: 0.05 to 5 mM; IC50 [5, 14]: 0.05 to 5 mM; IC50 [6, 15]: 0.05 to 5 mM; IC50 [7, 16]: 0.05 to 5 mM
